The values below come from ChEMBL document CHEMBL1139759, “Discovery and SAR studies of novel GlyT1 inhibitors” (Bioorg Med Chem Lett, 2007).

Data set [1] concerns the target T1, Sodium- and chloride-dependent glycine transporter 2 (Homo sapiens, UniProt Q9Y345).
T1 sequence (Q9Y345 whole entry): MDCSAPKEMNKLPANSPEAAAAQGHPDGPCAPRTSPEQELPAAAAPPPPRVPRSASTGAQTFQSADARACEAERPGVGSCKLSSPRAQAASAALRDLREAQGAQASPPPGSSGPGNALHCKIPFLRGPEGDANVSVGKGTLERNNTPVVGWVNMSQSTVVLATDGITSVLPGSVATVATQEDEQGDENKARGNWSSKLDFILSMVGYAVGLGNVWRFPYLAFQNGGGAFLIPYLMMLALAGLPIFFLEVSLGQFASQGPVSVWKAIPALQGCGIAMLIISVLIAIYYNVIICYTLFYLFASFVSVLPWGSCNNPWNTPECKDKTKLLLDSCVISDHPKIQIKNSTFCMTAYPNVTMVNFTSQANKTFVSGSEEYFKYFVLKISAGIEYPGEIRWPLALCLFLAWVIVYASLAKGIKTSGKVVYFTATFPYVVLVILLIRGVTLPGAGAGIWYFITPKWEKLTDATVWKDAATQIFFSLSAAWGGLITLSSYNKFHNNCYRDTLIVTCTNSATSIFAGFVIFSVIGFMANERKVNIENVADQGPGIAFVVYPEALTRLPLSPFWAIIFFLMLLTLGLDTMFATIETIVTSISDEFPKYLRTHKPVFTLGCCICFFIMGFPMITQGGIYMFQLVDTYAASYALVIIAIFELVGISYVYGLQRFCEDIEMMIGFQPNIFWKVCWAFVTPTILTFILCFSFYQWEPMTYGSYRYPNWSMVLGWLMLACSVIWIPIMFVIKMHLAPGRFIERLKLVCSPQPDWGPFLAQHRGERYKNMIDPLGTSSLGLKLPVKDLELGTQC
Nature of the data set: Inhibition of [14C]glycine reuptake at human GlyT2 expressed in BE(2)-C cells. It counts as cell-based.

A further data set relates to Rattus norvegicus. Nature of the data set: Increase in glycine level of Sprague-Dawley rat cerebrospinal fluid at 30 mg/kg, sc. The conditions noted are these: route subcutaneous. It counts as functional.
The next data set concerns Cerebrospinal fluid. Nature of the data set: Drug level in rat cerebrospinal fluid at 30 mg/kg, sc. It counts as ADME, organism-based. Further details: dose 30 mg/kg, route subcutaneous. The conditions noted are these: in vivo.
Data set [2] concerns the target T2, Sodium- and chloride-dependent glycine transporter 1 (Homo sapiens, UniProt P48067).
T2 sequence (P48067 whole entry): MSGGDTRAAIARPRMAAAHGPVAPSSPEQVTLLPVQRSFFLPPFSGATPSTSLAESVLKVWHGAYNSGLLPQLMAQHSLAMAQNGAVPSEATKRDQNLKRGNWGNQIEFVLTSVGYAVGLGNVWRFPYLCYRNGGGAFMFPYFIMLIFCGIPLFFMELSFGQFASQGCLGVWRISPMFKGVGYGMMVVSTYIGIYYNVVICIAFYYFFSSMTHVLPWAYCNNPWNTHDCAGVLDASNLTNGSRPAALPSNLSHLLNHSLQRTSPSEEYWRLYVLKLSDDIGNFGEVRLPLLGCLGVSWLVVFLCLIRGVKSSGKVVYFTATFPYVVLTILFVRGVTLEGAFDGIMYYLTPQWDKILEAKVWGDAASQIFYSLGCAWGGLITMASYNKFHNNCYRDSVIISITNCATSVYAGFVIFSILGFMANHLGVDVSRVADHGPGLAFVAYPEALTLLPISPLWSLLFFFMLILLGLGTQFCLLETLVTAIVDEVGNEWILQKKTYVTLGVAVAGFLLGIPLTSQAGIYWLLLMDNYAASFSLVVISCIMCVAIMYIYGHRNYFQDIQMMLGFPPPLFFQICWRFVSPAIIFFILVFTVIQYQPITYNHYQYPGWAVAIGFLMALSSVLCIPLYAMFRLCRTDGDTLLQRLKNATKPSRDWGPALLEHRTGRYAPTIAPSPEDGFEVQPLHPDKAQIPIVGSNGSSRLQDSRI
Nature of the data set: Inhibition of [14C]glycine reuptake at human GlyT1 expressed in BE(2)-C cells. The format is cell-based.

As to `CN(CC[C@@H](Oc1ccc(-c2ccccc2)cc1)c1ccc(F)cc1)CC(=O)O`, in data set [1], the IC50 is greater than 30 µM. Besides, the Activity in the data set on Rattus norvegicus stood at 204%. Also, the Drug uptake in the data set on Cerebrospinal fluid was determined as 47 ng/mL.

As for `CN(CCOc1ccc(-c2ccc3c(c2)OCO3)cc1-c1ccccc1Cl)CC(=O)O`, the results for the IC50 in data set [1] and in data set [2] were greater than 30 µM and 12 nM, respectively.

On to `Cc1ccccc1-c1cc(-c2ccccc2)ccc1OCCN(C)CC(=O)O`, for which the IC50 is greater than 30 µM in data set [1] and 56 nM in data set [2].

Consider `COc1ccccc1-c1cc(-c2ccccc2)ccc1OCCN(C)CC(=O)O`, for which the IC50 in data set [1] was greater than 30 µM; in data set [2], 351 nM.

For `CN(CCOc1ccc(-c2ccccc2)cc1-c1ccsc1)CC(=O)O`, the IC50 in data set [1] is greater than 30 µM; in data set [2], 139 nM.

Take `CN(CCOc1ccc(-c2ccccc2Cl)cc1C(=O)c1cccs1)CC(=O)O`: the IC50 in data set [1] is greater than 30 µM; in data set [2], 175 nM.

Take `CN(CCOc1ccc(-c2cccc(Cl)c2)cc1C(=O)c1cccs1)CC(=O)O`: the half-inhibitory concentration (IC50) in data set [1] was greater than 30 µM; in data set [2], 26 nM.

In the case of `Cc1ccccc1-c1ccc(OCCN(C)CC(=O)O)c(C(=O)c2cccs2)c1`, the IC50 in data set [1] is greater than 30 µM; in data set [2], 632 nM.

`Cc1cccc(-c2ccc(OCCN(C)CC(=O)O)c(C(=O)c3cccs3)c2)c1`: the results for the IC50 in data set [1] and in data set [2] were greater than 30 µM and 45 nM, respectively.

With `Cc1ccc(-c2ccc(OCCN(C)CC(=O)O)c(C(=O)c3cccs3)c2)cc1`, the IC50 is greater than 30 µM in data set [1] and 59 nM in data set [2].

On to `COc1ccc(-c2ccc(OCCN(C)CC(=O)O)c(C(=O)c3cccs3)c2)cc1`, for which the values for the IC50 in data set [1] and in data set [2] were greater than 30 µM and 27 nM, respectively.

For `Cc1ccc(-c2ccc(OCCN(C)CC(=O)O)c(C(=O)c3cccs3)c2)cc1C`, the IC50 is greater than 30 µM in data set [1] and 76 nM in data set [2].

`CN(CCOc1ccc(-c2ccccc2)cc1-c1nccs1)CC(=O)O`: the IC50 is greater than 30 µM in data set [1] and 957 nM in data set [2].

Regarding `COc1ccc(-c2ccc(OCCN(C)CC(=O)O)c(C(=O)c3cccs3)c2)cc1OC`, the results for the half-maximal inhibitory concentration (IC50) in data set [1] and in data set [2] were greater than 30 µM and 834 nM, respectively.

`CN(CCOc1ccc(-c2ccc3c(c2)OCO3)cc1C(=O)c1cccs1)CC(=O)O`: the IC50 in data set [1] was greater than 30 µM; in data set [2] it was 19 nM.

As to `CN(CCOc1ccc(-c2ccccc2)cc1-c1cccc2ccccc12)CC(=O)O`, the IC50 in data set [1] was greater than 30 µM; in data set [2], 496 nM.

`CN(CCOc1ccc(-c2ccccc2)cc1Cc1cccs1)CC(=O)O`: the half-inhibitory concentration (IC50) in data set [1] was greater than 30 µM; in data set [2], 40 nM.

On to `CN(CCOc1ccc(-c2ccccc2)cc1-c1cccs1)CC(=O)O`, for which the values for the IC50 in data set [1] and in data set [2] were greater than 30 µM and 70 nM, respectively. For the same molecule, the Activity in the data set on Rattus norvegicus was determined as 196%. The molecule further registered a Drug uptake in the data set with Cerebrospinal fluid of 113 ng/mL.

For the molecule `CN(CCOc1ccc(-c2ccccc2)cc1Cc1ccccc1)CC(=O)O`, the 50% inhibitory concentration (IC50) in data set [1] is greater than 30 µM; in data set [2], 85 nM.

Turning to `CN(CCOc1ccc(-c2ccccc2)cc1-c1ccccc1)CC(=O)O`, the IC50 in data set [1] was greater than 30 µM; in data set [2], 229 nM.

For the molecule `CN(CCOc1ccc(-c2ccccc2)cc1C(=O)C1CCCCC1)CC(=O)O`, the IC50 in data set [1] was greater than 30 µM; in data set [2] it was 70 nM.

Regarding `CN(CCOc1ccc(-c2ccccc2)cc1C1CCCCC1)CC(=O)O`, the IC50 is greater than 30 µM in data set [1] and 251 nM in data set [2].

For the molecule `CN(CCOc1ccc(-c2ccccc2)cc1-c1cccc(Cl)c1)CC(=O)O`, the IC50 in data set [1] was greater than 30 µM; in data set [2], 674 nM.

Take `CN(CCOc1ccc(-c2ccccc2)cc1-c1ccccc1F)CC(=O)O`: the IC50 is greater than 30 µM in data set [1] and 108 nM in data set [2].

For `COc1ccc(-c2ccc(OCCN(C)CC(=O)O)c(-c3ccccc3Cl)c2)cc1C`, the IC50 is greater than 30 µM in data set [1] and 28 nM in data set [2].

Consider `CN(CCOc1ccc(-c2ccc3c(c2)OCCO3)cc1-c1ccccc1Cl)CC(=O)O`, for which the figures for the IC50 in data set [1] and in data set [2] were greater than 30 µM and 14 nM, respectively.

Regarding `CN(CCOc1ccc(-c2ccc3c(c2)CCO3)cc1-c1cccs1)CC(=O)O`, the IC50 in data set [1] was greater than 30 µM; in data set [2] it was 17 nM.

On to `CN(CCOc1ccc(-c2ccccc2)cc1-c1ccc(Cl)cc1)CC(=O)O`, for which the 50% inhibitory concentration (IC50) in data set [1] was greater than 30 µM; in data set [2], 965 nM.

As to `CN(CCOc1ccc(-c2ccc3c(c2)CCO3)cc1-c1ccccc1Cl)CC(=O)O`, the IC50 in data set [1] is greater than 30 µM; in data set [2], 13 nM.

For the molecule `CN(CCOc1ccc(-c2ccc(Cl)cc2)cc1C(=O)c1cccs1)CC(=O)O`, the IC50 in data set [1] is greater than 30 µM; in data set [2], 68 nM.

For the molecule `COc1cccc(-c2ccc(OCCN(C)CC(=O)O)c(C(=O)c3cccs3)c2)c1`, the half-inhibitory concentration (IC50) was greater than 30 µM in data set [1] and 104 nM in data set [2].

With `COc1ccc(-c2ccc(OCCN(C)CC(=O)O)c(C(=O)c3cccs3)c2)cc1C`, the half-maximal inhibitory concentration (IC50) was greater than 30 µM in data set [1] and 18 nM in data set [2].

In the case of `CN(CCOc1ccc(-c2ccccc2)cc1CC1CCCCC1)CC(=O)O`, the IC50 in data set [1] was greater than 30 µM; in data set [2], 289 nM.

Consider `CN(CCOc1ccc(-c2ccccc2)cc1C(=O)c1cccs1)CC(=O)O`, for which the IC50 was greater than 30 µM in data set [1] and 45 nM in data set [2]. In addition, the Activity with Rattus norvegicus amounted to 114%. Moreover, in the data set on Cerebrospinal fluid, the Drug uptake stood at 15 ng/mL.

As for `COc1ccc(-c2ccc(OCCN(C)CC(=O)O)c(-c3cccs3)c2)cc1C`, the values for the IC50 in data set [1] and in data set [2] were greater than 30 µM and 161 nM, respectively.

For `CN(CCOc1ccc(-c2ccc3c(c2)OCO3)cc1-c1cccs1)CC(=O)O`, the half-maximal inhibitory concentration (IC50) is greater than 30 µM in data set [1] and 34 nM in data set [2].

Consider `CN(CCOc1ccc(C(F)(F)F)cc1C(=O)c1cccs1)CC(=O)O`, for which the IC50 is greater than 30 µM in data set [1] and 702 nM in data set [2].

For the molecule `CN(CCOc1ccc(-c2ccc3c(c2)OCCO3)cc1-c1cccs1)CC(=O)O`, the IC50 in data set [1] is greater than 30 µM; in data set [2] it was 25 nM.

Take `CN(CCOc1ccc(-c2ccccc2)cc1C(=O)c1ccccc1)CC(=O)O`: the IC50 was greater than 30 µM in data set [1] and 65 nM in data set [2].

On to `CN(CCOc1ccc(-c2ccccc2)cc1-c1ccccc1Cl)CC(=O)O`, for which the IC50 in data set [1] was greater than 30 µM; in data set [2], 53 nM. Moreover, in the data set with Rattus norvegicus, the Activity worked out at 155%. In the data set with Cerebrospinal fluid, this molecule registered a Drug uptake of 25 ng/mL.

A word on the IC50: it is the concentration needed to halve the response being measured. A high value points to weaker potency.
